The values that follow come from US20190359756A1, “OPTICAL MEMBER FORMING COMPOSITION” (Mitsubishi Gas Chemical Company, Inc., priority 2016, published 2019).

What all share (type): physicochemical
Data set [1] is described as follows: Solubility test in propylene glycol monomethyl ether acetate. The settings on record: 23° C., ultrasonic waves 30 minutes, amount of complete dissolution. The procedure: The solubility was evaluated by precisely weighing the compound into a test tube, adding propylene glycol monomethyl ether acetate at 23° C. so as to attain a predetermined concentration, applying ultrasonic waves for 30 minutes in an ultrasonic cleaner, then visually observing the subsequent state of the fluid, determining the concentration of the amount of complete dissolution, and conducting evaluation according to the following criteria.
A: 5.0% by mass Amount of dissolution
B: 3.0% by mass Amount of dissolution <5.0% by mass
C: Amount of dissolution <3.0% by mass

The nature of data set [2]: Refractive index of optical member forming film (spectroscopic ellipsometer). Particulars: wavelength 633 nm, film thickness 1000 nm, baked at 110° C. for 60 seconds. The procedure:
(§1) The compound was dissolved at 5% by mass in propylene glycol methyl ether to prepare an optical member forming material. Next, a silicon substrate was spin coated with the optical member forming material, and then baked at 110° C. for 60 seconds to form an optical member forming film with a film thickness of 1000 nm.
(§2) Subsequently, the refractive index and transparency tests at a wavelength of 633 nm were conducted using a vacuum ultraviolet variable angle spectroscopic ellipsometer (VUV-VASE) manufactured by J. A. Woollam Co., Inc. The refractive index and the transparency were evaluated according to the following criteria.
A: The refractive index was 1.65 or more.
C: The refractive index was less than 1.65.

The nature of data set [3]: Transparency (absorption constant) of optical member forming film. Particulars: wavelength 633 nm, film thickness 1000 nm, baked at 110° C. for 60 seconds. As for the experimental part:
as §1, §2
A: The absorption constant was less than 0.03.
B: The absorption constant was 0.03 or more and less than 0.05.
C: The absorption constant was 0.05 or more.

The nature of another data set: Film heat resistance. Set-up: key: A: No defect in the film was visually observed.; C: Defects in the film were visually observed (including disappearance of the film). Particulars: film baked at 110° C. for 5 minutes, visual observation. The procedure:
as §1
The optical member forming film obtained as described above was baked at 110° C. for 5 minutes, and evaluation of film heat resistance was carried out according to the following criteria.
A: No defect in the film was visually observed.
C: Defects in the film were visually observed (including disappearance of the film).

SMILES strings stand for the structures.

As to `Oc1ccc(C(c2ccc(-c3ccccc3)cc2)c2ccc(O)c(-c3ccccc3)c2)cc1-c1ccccc1` [BiP-1], the Solubility entry in data set [1] is recorded as “A (5.0% by mass Amount of dissolution)”. For the same compound, in data set [2], the Refractive index entry is on record as “A (The refractive index was 1.65 or more.)”. Besides, in data set [3], the Absorption constant result is reported as “A (The absorption constant was less than 0.03.)”. The Film heat resistance result in “Film heat resistance” is recorded as “A”.
Regarding `Oc1ccc(-c2ccc(O)c(C(c3ccc(-c4ccccc4)cc3)c3cc(-c4ccc(O)cc4)ccc3O)c2)cc1` [BiP-2], in data set [1], the Solubility entry is listed as “A (5.0% by mass Amount of dissolution)”. Besides, the Refractive index entry in data set [2] is listed as “A (The refractive index was 1.65 or more.)”. For the same compound, the Absorption constant entry in data set [3] is “A (The absorption constant was less than 0.03.)”. Moreover, the Film heat resistance entry in “Film heat resistance” was “A”.
For `Oc1ccc(C(c2ccc(-c3ccccc3)cc2)c2ccc(O)cc2O)c(O)c1` [Example P-5], in data set [1], the Solubility result was “A (5.0% by mass Amount of dissolution)”. Further, the Refractive index entry in data set [2] was “A (The refractive index was 1.65 or more.)”. The Absorption constant entry in data set [3] is “A (The absorption constant was less than 0.03.)”. In the data set “Film heat resistance”, the Film heat resistance entry was “A”.
Turning to `Oc1ccc(C(c2ccccc2)c2ccc(O)cc2O)c(O)c1` [Example P-6], in data set [1], the Solubility result is recorded as “A (5.0% by mass Amount of dissolution)”. In data set [2], the Refractive index entry is reported as “A (The refractive index was 1.65 or more.)”. For the same compound, the Absorption constant result in data set [3] is listed as “A (The absorption constant was less than 0.03.)”. The Film heat resistance result in “Film heat resistance” was “A”.
Consider `Oc1ccc(C(c2ccc(C3CCCCC3)cc2)c2ccc(O)cc2O)c(O)c1` [Example P-7], for which the Solubility entry in data set [1] is listed as “A (5.0% by mass Amount of dissolution)”. In data set [2], the Refractive index result was “A (The refractive index was 1.65 or more.)”. Also, in data set [3], the Absorption constant entry is “A (The absorption constant was less than 0.03.)”. The Film heat resistance result in “Film heat resistance” is given as “A”.
As to `Oc1ccc2ccc3c(c2c1)C(c1ccc(-c2ccc(C4c5c(ccc6ccc(O)cc56)Oc5ccc6ccc(O)cc6c54)cc2)cc1)c1c(ccc2ccc(O)cc12)O3` [XBiN 3], the Solubility result in data set [1] is given as “A (5.0% by mass Amount of dissolution)”. In addition, in data set [2], the Refractive index entry is listed as “A (The refractive index was 1.65 or more.)”. Further, in data set [3], the Absorption constant result is “A (The absorption constant was less than 0.03.)”. In “Film heat resistance”, the Film heat resistance entry is “A”.
Take `CC(C)Cc1ccc(C2c3c(ccc4cc(O)ccc34)Oc3ccc4cc(O)ccc4c32)cc1` [XBisN 2]: in data set [1], the Solubility result is “A (5.0% by mass Amount of dissolution)”. In data set [2], the Refractive index result is reported as “A (The refractive index was 1.65 or more.)”. In addition, the Absorption constant entry in data set [3] was “A (The absorption constant was less than 0.03.)”. Further, the Film heat resistance result in the data set “Film heat resistance” is given as “A”.
Consider `CCCc1ccc(C2c3c(ccc4cc(O)ccc34)Oc3ccc4cc(O)ccc4c32)cc1` [XBisN-3], for which the Solubility entry in data set [1] was “A (5.0% by mass Amount of dissolution)”. Besides, in data set [2], the Refractive index result is “A (The refractive index was 1.65 or more.)”. Moreover, in data set [3], the Absorption constant result is “A (The absorption constant was less than 0.03.)”. The Film heat resistance result in the data set “Film heat resistance” is recorded as “A”.
Consider `Oc1ccc(C2c3c(ccc4cc(O)ccc34)Oc3ccc4cc(O)ccc4c32)cc1` [XBisN-4], for which the Solubility entry in data set [1] is listed as “A (5.0% by mass Amount of dissolution)”. In data set [2], the Refractive index result is recorded as “A (The refractive index was 1.65 or more.)”. Also, in data set [3], the Absorption constant result is “A (The absorption constant was less than 0.03.)”. Also, the Film heat resistance result in the data set “Film heat resistance” is recorded as “A”.
`Oc1ccc2c3c(ccc2c1)Oc1ccc2cc(O)ccc2c1C3c1ccc(C2CCCCC2)cc1` [XBisN-5]: in data set [1], the Solubility result was “A (5.0% by mass Amount of dissolution)”. Also, the Refractive index entry in data set [2] is on record as “A (The refractive index was 1.65 or more.)”. For the same compound, the Absorption constant entry in data set [3] is “A (The absorption constant was less than 0.03.)”. Further, the Film heat resistance entry in the data set “Film heat resistance” is “A”.
For the compound `CC(C)Cc1ccc(C2c3c(ccc4ccc(O)cc34)Oc3ccc4ccc(O)cc4c32)cc1` [XBisN-6], the Solubility result in data set [1] is on record as “A (5.0% by mass Amount of dissolution)”. Besides, in data set [2], the Refractive index result is “A (The refractive index was 1.65 or more.)”. In addition, the Absorption constant entry in data set [3] is given as “A (The absorption constant was less than 0.03.)”. For the same compound, the Film heat resistance entry in “Film heat resistance” is listed as “A”.
For the compound `CCCc1ccc(C2c3c(ccc4ccc(O)cc34)Oc3ccc4ccc(O)cc4c32)cc1` [XBisN-7], the Solubility entry in data set [1] was “A (5.0% by mass Amount of dissolution)”. Moreover, in data set [2], the Refractive index result is “A (The refractive index was 1.65 or more.)”. The Absorption constant entry in data set [3] is listed as “A (The absorption constant was less than 0.03.)”. Moreover, the Film heat resistance result in the data set “Film heat resistance” was “A”.
As for `Oc1ccc(C2c3c(ccc4ccc(O)cc34)Oc3ccc4ccc(O)cc4c32)cc1` [XBisN-8], the Solubility entry in data set [1] was “A (5.0% by mass Amount of dissolution)”. Further, in data set [2], the Refractive index result is “A (The refractive index was 1.65 or more.)”. The Absorption constant entry in data set [3] was “A (The absorption constant was less than 0.03.)”. Further, the Film heat resistance result in “Film heat resistance” was “A”.
Regarding `Oc1ccc2ccc3c(c2c1)C(c1ccc(C2CCCCC2)cc1)c1c(ccc2ccc(O)cc12)O3` [XBisN-9], the Solubility result in data set [1] is given as “A (5.0% by mass Amount of dissolution)”. In addition, the Refractive index entry in data set [2] was “A (The refractive index was 1.65 or more.)”. In data set [3], the Absorption constant result was “A (The absorption constant was less than 0.03.)”. In addition, the Film heat resistance result in “Film heat resistance” is listed as “A”.
Take `Oc1ccc2c3c(ccc2c1)Oc1ccc2cc(O)ccc2c1C3c1ccc(-c2ccccc2)cc1` [XiN-1]: the Solubility entry in data set [1] is given as “A (5.0% by mass Amount of dissolution)”. In data set [2], the Refractive index entry is given as “A (The refractive index was 1.65 or more.)”. Also, the Absorption constant result in data set [3] was “A (The absorption constant was less than 0.03.)”. Moreover, the Film heat resistance result in “Film heat resistance” is “A”.
`Oc1ccc2c3c(ccc2c1)Oc1ccc2cc(O)ccc2c1C3c1ccc(-c2ccc(C3c4c(ccc5cc(O)ccc45)Oc4ccc5cc(O)ccc5c43)cc2)cc1` [XiN-3]: the Solubility result in data set [1] was “A (5.0% by mass Amount of dissolution)”. Also, the Refractive index entry in data set [2] is “A (The refractive index was 1.65 or more.)”. For the same compound, the Absorption constant result in data set [3] is listed as “A (The absorption constant was less than 0.03.)”. The Film heat resistance result in “Film heat resistance” is “A”.
